Data set [1] concerns Cdc42. Nature of the data set: Cdc42 activity (Cdc42-GTP levels) in mouse brain endothelial cells. The class given is cell-based. Particulars: for Cdc42 activity: CLN3−/− MBEC, p<0.05. The text has this: FIGS. 2A and 2B. Carbenoxolone reduces Cdc42 activity in CLN3-null JNCL mouse brain endothelial cells (MBEC). […] FIG. 3: CBX corrects Cdc42-GTP levels. […] Data represent the mean of three independent experiments, error bars±SEM (1-way ANOVA with TUKEY post-hoc, (*, p<0.05, n.s.=not significant).

The subject of data set [2] is CLN3-null JNCL mouse brain endothelial cells. As to the kind of experiment: Scratch wound cell migration, live cell microscopy. Conditions: CLN3−/− MBEC, CBX vs mock, overnight. The class given is cell-based. How it is done: FIG. 4. Carbenoxolone normalizes migration of CLN3-null JNCL mouse brain endothelial cells. Cell migration induced by a scratch in cell monolayers was measured using live cell microscopy and quantified by T-Scratch software. CLN3-expressing (CLN3-R) and CLN3-null (CLN3-/-) MBEC were grown to confluence. A gap in the monolayer was made by “[…] wound”, and the rate of cell migration to fill in the gap was monitored by live cell microscopy. CLN3-/- MBEC show a delayed ability to fill in the gap. Carbenoxolone treatment corrects this defect. Cells were either treated with CBX or left untreated (mock) in the presence or absence of CBX. Data are collected overnight. Data represent the mean of three independent experiments, error bars±SEM (2-way ANOVA with Bonferroni post-hoc correction, *, p<0.05).

The subject of data set [3] is Cln3−/− MBECs. As to the kind of experiment: Fluid-phase endocytosis, uptake of fluorescent dextran. Conditions: 25 μM CBX for 30 minutes. The class given is cell-based, mouse. How it is done: FIG. 5. Correction of fluid-phase endocytosis by CBX. Hoechst 33342 to label DNA (blue) and saline (mock) or 25 μM CBX was added to cell culture media for 30 minutes. Fluid-phase endocytic uptake in the presence of CBX or PBS was determined by uptake of fluorescent dextran (green). Extracellular dextran was quenched by Red-40 and cells were imaged by epifluorescence. ImageJ was used to calculate fluorescence intensity. Data represent the mean of three independent experiments, error bars±SEM (1-way ANOVA with TUKEY post-hoc, ***, p<0.0001). Scale bar=10 μm.

Data set [4] concerns caveolin-1. Nature of the data set: Caveolin-1 transport to the cell membrane, immunofluorescence. In kind it is cell-based, mouse. Particulars: CLN3−/− MBEC, 25 μM for 2 h. How it is done: FIG. 6. Carbenoxolone restores caveolin-1 transport to the cell membrane in CLN3-null JNCL mouse brain endothelial cells. CLN3-expressing (CLN3-R) and CLN3-null (CLN3−/−) MBEC were untreated or cultured with 25 μM carbenoxolone for 2 h, then immunofluorescently stained for caveolin-1. Without treatment, caveolin-1 transport to the plasma membrane is impaired in CLN3−/− MBEC. Carbenoxolone restores normal caveolin-1 trafficking to the plasma membrane.

For data set [5], the system named is plasma membrane cholesterol. As to the kind of experiment: Cholesterol distribution at the plasma membrane, Amplex Red Cholesterol assay. In kind it is cell-based, mouse. Particulars: CBX 25 μM for 2 hours vs mock. Here is the method: Plasma membranes are detergent-free fractionated and cholesterol levels in each fraction are quantified by the Amplex Red® Cholesterol assay kit. A representative experiment from four independent experiments is shown with CBX 25 μM for 2 hours or mock treatment.

Data set [6] deals with Cln3−/− mice. Nature of the data set: Autofluorescent inclusions in cingulate cortex brain sections. The class given is in vivo, mouse. Particulars: gavage 20 mg/kg daily for two weeks, p<0.05. The text has this:
FIG. 11: CBX treatment reduces Cln3^−/− autofluorescent inclusions. Thin (50 μm) brain sections from mice treated as in were imaged under low magnification in the red channel to detect autofluorescence. Four images were taken of each cingulate cortex, and fluorescence intensity averaged in ImageJ. Data represent a minimum of 4 mice per group. Error bars±SEM (1-way ANOVA with TUKEY post-hoc, *, p<0.05) Scale bar=200 μm.

For data set [7] the following is noted: Leshchenko et al., 2006; cited from earlier work.

“Also recorded” adds a separate entry of the source.

Regarding `CC1(C)[C@@H](OC(=O)CCC(=O)O)CC[C@]2(C)[C@H]3C(=O)C=C4[C@@H]5C[C@@](C)(C(=O)O)CC[C@]5(C)CC[C@@]4(C)[C@]3(C)CC[C@@H]12` [CBX, carbenoxolone], the Cdc42 activity level entry in data set [1] (CLN3-R (CLN3-expressing) MBEC, CBX 50 μM for 2 h) is “does not alter”. Besides, the Cdc42 activity result in data set [1] (CBX 50 μM for 2 h) is listed as “effectively normalized”; in data set [1] (CBX 50 μM for 2 h, listed as Carbenoxolone), “significantly reduces”. The Cdc42-GTP levels entry in data set [1] (Cln3−/− MBECs, CBX 25 μM for 2 hours vs saline (mock)) is “corrects; also recorded: reduces”. The “Cell migration (rate of filling scratch gap)” value in data set [2] is listed as “increases cell migration”; in data set [2] (listed as Carbenoxolone), “normalizes”. The “Fluid-phase endocytosis (fluorescent dextran uptake)” value in data set [3] is given as “Correction; also recorded: increases fluid-phase endocytosis”. Also, the “Caveolin-1 transport to the plasma membrane” value in data set [4] is recorded as “restores”. Besides, the “Cholesterol distribution at the plasma membrane” value in data set [5] is given as “corrects cholesterol distribution”. In data set [6], the “Autofluorescent inclusions (fluorescence intensity, cingulate cortex)” value is given as “reduces”. Besides, in data set [7], the “Ability to pass the blood-brain barrier (BBB)” value is listed as “little or no ability”.

The values above are taken from patent US20160038521A1, “THERAPEUTIC METHODS” (UNIVERSITY OF IOWA RESEARCH FOUNDATION, priority 2013, published 2016).
